Assay results from patent US5466815A, “Tetrazole derivatives of bile acids, and their use as lipid level lowering medicaments” (Hoechst Aktiengesellschaft, priority 1993, dated 1995).

Target: T1, intestinal bile acid transportation system (Na^+ -dependent) in brush border membrane vesicles of the ileum (Oryctolagus cuniculus, UniProt Q28727)
T1 construct: Brush border membrane vesicles were prepared from the intestinal cells of the small intestine; from tissue; host or cells: brush border membrane vesicles from the terminal 7/10 of the small intestine (ileum) of male New Zealand rabbits
T1 sequence (Q28727 1-347): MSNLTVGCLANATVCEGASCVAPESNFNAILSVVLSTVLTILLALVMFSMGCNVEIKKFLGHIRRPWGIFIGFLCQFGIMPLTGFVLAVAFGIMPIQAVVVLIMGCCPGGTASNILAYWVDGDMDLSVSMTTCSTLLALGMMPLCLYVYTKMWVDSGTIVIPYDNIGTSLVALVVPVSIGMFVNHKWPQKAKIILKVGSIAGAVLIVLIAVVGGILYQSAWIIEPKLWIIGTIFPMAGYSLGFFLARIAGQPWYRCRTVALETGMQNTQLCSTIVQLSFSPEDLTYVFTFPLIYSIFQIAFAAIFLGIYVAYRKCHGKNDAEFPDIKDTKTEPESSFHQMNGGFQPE
Assay: Inhibition of [^3 H]-taurocholate uptake in brush border membrane vesicles of the ileum of rabbits
Format: biochemical, rabbit
Conditions: 50 μM taurocholate, usually 1 minute; for IC50Na TCDC / IC50Na -substance: quotient of IC50Na of reference taurochenodeoxycholate (TCDC) and IC50Na of test substance, Na^+ -dependent transportation content (Na-T-B minus K-T-B); for IC50 -TCDC / IC50 -substance: quotient of IC50 of reference taurochenodeoxycholate (TCDC) and IC50 of test substance, [^3 H]-taurocholate uptake
Procedure: The compounds according to the invention were tested biologically by determination of the inhibition of [^3 H]-taurocholate uptake in brush border membrane vesicles of the ileum of rabbits. The inhibition test was carried out as follows:
1. Preparation of Brush Border Membrane Vesicles from the Ileum of Rabbits
Brush border membrane vesicles were prepared from the intestinal cells of the small intestine by the so-called Mg^2+ precipitation method. Male New Zealand rabbits (2 to 2.5 kg bodyweight) were sacrificed by intravenous injection of 0.5 ml of an aqueous solution of 2.5 mg Tetracain HCl, 100 T61^R and 25 mg of mebezonium iodide. The small intestine was rinsed with ice-cold physiological saline solution. The terminal […] of the small intestine (measured in the oral-rectal direction, i.e. the terminal ileum, which contains the active Na^+ -dependent bile acid transportation system) was used for preparation of the brush border membrane vesicles. The intestines were frozen in plastic bags under nitrogen at -80° C. For preparation of the membrane vesicles, the frozen intestines were […] at 30° C. in a water-bath. The mucosa was scraped off and suspended in 60 ml of ice-cold 12 mM Tris/HCl buffer (pH 7.1)/300 mM mannitol, 5 mM EGTA/10 mg/l of phenylmethylsulfonylfluoride/1 mg/l of trypsin inhibitor for soya beans (32 U/mg)/0.5 mg/l of trypsin inhibitor from bovine lung (193 U/mg)/5 mg/l of bacitracin. After dilution to 300 ml with ice-cold distilled water, the mixture was homogenized with an Ultraturrax (18-rod, IKA Werk Staufen, FRG) for 3 minutes at 75 % of the maximum power, while cooling with ice. After addition of 3 ml of 1M MgCl2 solution (final concentration 10 mM), the mixture was left to stand at 0° C. for exactly 1 minute. By addition of Mg^2+, the cell membranes aggregate and precipitate, with the exception of the brush border membranes. After centrifugation at 3000×g (5000 revolutions per minute, SS-34 rotor) for 15 minutes, the precipitate is discarded and the supernatant, which contains the brush border membranes, was centrifuged at […] (15000 revolutions per minute, SS-34 rotor) for 30 minutes. The supernatant was discarded and the precipitate was rehomogenized in 60 ml of 12 mM tris/HCl buffer (pH 7.1)/60 mM mannitol, 5 mM EGTA using a Potter Elvejhem homogenizer (Braun, Melsungen, 900 revolutions per minute, 10 strokes). After addition of 0.1 ml of 1M MgCl2 solution and an incubation time of 15 minutes at 0° C., the mixture was centrifuged again at 3000×g for 15 minutes. The supernatatant was then centrifuged again at 46000×g (15000 revolutions per minute, SS-34 rotor) for 30 minutes. The precipitate was taken up in 30 ml of 10 mM Tris/Hepes buffer (pH 7.4)/300 mM mannitol and resuspended homogeneously by 20 strokes in a Potter Elvejhem homogenizer at 1000 revolutions per minute. After centrifugation at 48000×g (20000 revolutions per minute, SS-34 rotor) for 30 minutes, the precipitate was taken up in 0.5 to 2 ml of Tris/Hepes buffer (pH 7.4)/280 mM mannitol (final concentration 20 mg/ml) and resuspended with the aid of a tuberculin syringe with a 27 gauge needle. The vesicles were either used for transportation studies immediately after preparation or stored at -196° C. in 4 mg portions in liquid nitrogen.
2. Inhibition of the Na^+ -dependent [^3 H]-taurocholate Uptake in the Brush Border Membrane Vesicles of the Ileum
The uptake of substrates into the brush border membrane vesicles described above was determined by means of the so-called membrane filtration technique. 10 μl of the vesicle suspension (100 μg of protein) were pipetted as drops onto the wall of a polystyrene incubation tube (11×70 mm) which contained the incubation medium with the corresponding ligands (90 μl). […]

SMILES | IC50Na TCDC / IC50Na -substance | IC50 -TCDC / IC50 -substance
C[C@H](CCC(=O)Nc1nn[nH]n1)[C@H]1CC[C@H]2[C@@H]3[C@H](O)C[C@@H]4C[C@H](O)CC[C@]4(C)[C@H]3C[C@H](O)[C@]12C [Example 24] | 1.27 | 0.97
C[C@H](CCC(=O)NCCO[C@H]1CC[C@@]2(C)[C@@H](C1)C[C@@H](O)[C@@H]1[C@@H]2C[C@H](O)[C@]2(C)[C@@H]([C@H](C)CCCc3nn[nH]n3)CC[C@@H]12)[C@H]1CC[C@H]2[C@@H]3[C@@H](O)C[C@@H]4C[C@H](O)CC[C@]4(C)[C@H]3CC[C@]12C [Example 27] | 0.25 | 0.26
C[C@H](CCC(=O)N[C@H]1CC[C@@]2(C)[C@@H](C1)C[C@@H](O)[C@@H]1[C@@H]2C[C@H](O)[C@]2(C)[C@@H]([C@H](C)CCC(=O)Nc3nn[nH]n3)CC[C@@H]12)[C@H]1CC[C@H]2[C@@H]3[C@H](O)C[C@@H]4C[C@H](O)CC[C@]4(C)[C@H]3C[C@H](O)[C@]12C [Example 22] | 1.35 | 1.66
CC(CCCc1nn[nH]n1)C1CCC2C3C(O)CC4CC(O)CCC4(C)C3CC(O)C12C (centres unmarked) [Example 14] | 1.35 | 1.20
C[C@H](Cc1nn[nH]n1)[C@H]1CC[C@H]2[C@@H]3[C@H](O)C[C@@H]4C[C@H](O)CC[C@]4(C)[C@H]3C[C@H](O)[C@]12C [Example 4] | 0.38 | 0.28
C[C@H](CCC(=O)NCc1nn[nH]n1)[C@H]1CC[C@H]2[C@@H]3[C@H](O)C[C@@H]4C[C@H](O)CC[C@]4(C)[C@H]3C[C@H](O)[C@]12C [Example 29] | 0.48 | 0.46
C[C@H](CCCc1nn[nH]n1)[C@H]1CC[C@H]2[C@@H]3[C@H](O)C[C@@H]4C[C@@H](OCCO)CC[C@]4(C)[C@H]3C[C@H](O)[C@]12C [Example 16] | 0.25 | 0.26
